Values of other authors in article PMC11667226 (Theranostics, 2025).

System: EGFR
Conditions: microscopic histopathology as reference; ref Van Keulen et al. [36]; cited from earlier work
Text: Van Keulen et al. reported a 95% sensitiv ...

## panitumumab-IRDye800: antibody-based optical imaging agent targeting EGFR
  Sensitivity for detection of inadequate margins (< 5mm): 95%
  Specificity for detection of inadequate margins (< 5mm): 89%
